This note sets out measurements from PubChem BioAssay (NCI).

Test systems include UO-31 renal; NCI-H522 lung; HCT-15 colon; MOLT-4 leukemia; OVCAR-5 ovarian; LOX IMVI melanoma; SF-295 CNS; CCRF-CEM leukemia; SW-620 colon; IGROV1 ovarian.
Assay in all cases: inhibition of tumour cell growth, NCI panel, 48 h

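Grown in 96-well plates, cells were treated for 48 hours with each compound at five concentrations. Insufficient inhibition: endpoint recorded as highest concentration tested. Abbreviation: GI50, concentration required for 50% inhibition of growth. At the TGI there is no net growth.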

Consider `Clc1cc2c(c(CSc3nc4ccccc4n4cccc34)c1)OCOC2`, for which the GI50 is greater than 100 µM in the test with UO-31 renal; 23.4 µM in the test with NCI-H522 lung; 2.7 µM with HCT-15 colon; greater than 100 µM with MOLT-4 leukemia; greater than 100 µM with OVCAR-5 ovarian; greater than 100 µM with LOX IMVI melanoma. The GI50 with SF-295 CNS was 11.7 µM; in the test on CCRF-CEM leukemia, greater than 100 µM; with SW-620 colon, greater than 100 µM; in the test on IGROV1 ovarian, 4.26 µM. Also, the TGI with UO-31 renal, with NCI-H522 lung, with HCT-15 colon, in the test on MOLT-4 leukemia, in the test with OVCAR-5 ovarian and in the test with LOX IMVI melanoma was greater than 100 µM each time. Moreover, the TGI was 39.9 µM in the test with SF-295 CNS, greater than 100 µM in the test with CCRF-CEM leukemia, greater than 100 µM with SW-620 colon and greater than 100 µM in the test with IGROV1 ovarian.

With `COc1c(O)c2c(=O)cc3c4c5c(cc(=O)c6c(O)c(OC)c(CC(C)O)c(c(c1CC(C)O)c24)c65)OCO3` (stereo not given), the TGI with UO-31 renal turned out to be 5.45 µM; in the test with NCI-H522 lung, 4.38 µM; in the test with HCT-15 colon it was 4.13 µM; in the test with MOLT-4 leukemia, 4.44 µM; in the test with OVCAR-5 ovarian, 9.13 µM; in the test with LOX IMVI melanoma it was 2.28 µM. Further, the TGI worked out at 6.09 µM with SF-295 CNS, 16.7 µM in the test with CCRF-CEM leukemia, 8.65 µM in the test on SW-620 colon and 4.63 µM in the test on IGROV1 ovarian.

Regarding `Cc1nc(Nc2ccc(Cl)cc2)sc1C(=O)NNC(=S)NN`, the TGI in the test on UO-31 renal was 30.2 µM; in the test on NCI-H522 lung it was 34.8 µM; with HCT-15 colon it was 45.5 µM; with MOLT-4 leukemia, 58.6 µM; with OVCAR-5 ovarian, 31.4 µM; with LOX IMVI melanoma it was 29.5 µM. Besides, the TGI in the test with SF-295 CNS was found to be 34.1 µM; with CCRF-CEM leukemia, 88.5 µM; in the test with SW-620 colon, 38.1 µM; with IGROV1 ovarian, 63 µM.

As for `CN(C)CCC(/C=C/c1ccccc1)=N\Nc1ccccc1`, the TGI turned out to be 2.8 µM in the test with UO-31 renal; 8.98 µM in the test on NCI-H522 lung; 2.43 µM in the test on HCT-15 colon; 15 µM with MOLT-4 leukemia; 3.97 µM in the test with OVCAR-5 ovarian; 0.454 µM in the test with LOX IMVI melanoma. Moreover, the TGI in the test on SF-295 CNS was determined as 2.21 µM; with CCRF-CEM leukemia, 15.2 µM; in the test with SW-620 colon it was 2.06 µM; in the test with IGROV1 ovarian it was 16.5 µM.

As for `O=C(/C(=C/c1ccc(Cl)cc1)c1ccccc1)c1ccccc1`, the TGI is greater than 100 µM in the test on UO-31 renal; 34.7 µM with NCI-H522 lung; 30.6 µM in the test on HCT-15 colon; 47 µM in the test with MOLT-4 leukemia; 42.3 µM in the test with OVCAR-5 ovarian; 29 µM in the test with LOX IMVI melanoma. For the same compound, the TGI is 39.7 µM in the test with SF-295 CNS, greater than 100 µM in the test with CCRF-CEM leukemia, 31.6 µM in the test on SW-620 colon and 49.1 µM in the test on IGROV1 ovarian.

With `CNCCOC(=O)/C=C1\CC[C@H]2[C@@H]([C@@H](O)C(=O)[C@@H]3[C@]2(C)CC[C@H](O)[C@]3(C)C(=O)OC)[C@H]1C`, the GI50 in the test with UO-31 renal was 0.297 µM; in the test on NCI-H522 lung, 0.249 µM; with HCT-15 colon, 0.608 µM; in the test on MOLT-4 leukemia, 0.212 µM; in the test on OVCAR-5 ovarian it was 1.18 µM; in the test on LOX IMVI melanoma, 0.357 µM. Besides, the GI50 is 0.301 µM in the test on SF-295 CNS, 0.291 µM with CCRF-CEM leukemia, 0.318 µM with SW-620 colon and 0.438 µM with IGROV1 ovarian. Moreover, the TGI came to 1.1 µM with UO-31 renal; 0.813 µM in the test on NCI-H522 lung; 2.55 µM with HCT-15 colon; 0.543 µM in the test on MOLT-4 leukemia; 2.68 µM in the test with OVCAR-5 ovarian; 1.38 µM with LOX IMVI melanoma. The TGI in the test on SF-295 CNS was determined as 0.951 µM; with CCRF-CEM leukemia it was 1.09 µM; in the test on SW-620 colon, 1.14 µM; in the test with IGROV1 ovarian, 2.23 µM.

Turning to `N#C/C(=C\c1ccc2ccccc2c1)C(=O)c1ccccc1`, the TGI in the test on UO-31 renal was greater than 100 µM; with NCI-H522 lung it was greater than 100 µM; in the test with HCT-15 colon, greater than 100 µM; in the test on MOLT-4 leukemia, 68.8 µM; with OVCAR-5 ovarian, greater than 100 µM; with LOX IMVI melanoma, 52 µM. The TGI was greater than 100 µM with SF-295 CNS, 63.7 µM in the test with CCRF-CEM leukemia, greater than 81.4 µM in the test on SW-620 colon and greater than 100 µM with IGROV1 ovarian.

Regarding `N#CC(C(=O)/C(=N\NC(N)=O)C(C#N)c1ccc(Cl)cc1)c1ccc(Cl)cc1` (stereo not given), the TGI with UO-31 renal, in the test with NCI-H522 lung, in the test with HCT-15 colon, in the test with MOLT-4 leukemia, in the test on OVCAR-5 ovarian and in the test with LOX IMVI melanoma was greater than 100 µM in each case. The TGI in the test with SF-295 CNS, in the test on CCRF-CEM leukemia, in the test on SW-620 colon and in the test on IGROV1 ovarian was greater than 100 µM in each case.

Turning to `Cc1nc(N)sc1N=Nc1ccccc1Br`, the TGI in the test on UO-31 renal is 60.5 µM; with NCI-H522 lung it was 30.3 µM; in the test with HCT-15 colon, 69.8 µM; with MOLT-4 leukemia it was greater than 100 µM; in the test with OVCAR-5 ovarian, greater than 90.5 µM; with LOX IMVI melanoma it was greater than 66.1 µM. Also, the TGI in the test with SF-295 CNS is 97.7 µM; in the test on CCRF-CEM leukemia it was greater than 100 µM; in the test with SW-620 colon it was greater than 100 µM; in the test with IGROV1 ovarian, 64.4 µM.
